Legend:
[1] = tested on: lung strip isolated from guinea pig; assay: arachidonic acid-induced contraction of lung strip isolated from guinea pig; details: Cavia porcellus; 10 μM compound; 0.1 μM to 100 μM arachidonic acid; read-out: reduction in contractile response to arachidonic acid
Source text: Action of 5-methyl-2-hydroxy-laurophenone-oxime on arachidonic acid-inducedcontraction of lung strip isolated from guinea pig:
The experimental arrangement for this test system was analogous to that described in Example 15, through lung strip isolated from guinea pig was the subject of testing. Contraction, in this test, was induced by rising concentrations of arachidonic acid (concentrated solution in ethanol, kept in N2 atmosphere) and cumulatively measured.

solubility in water = format: physicochemical; details: visible from unambiguous clouding of the sample
sensitised guinea pig = assay: allergen (ovalbumin)-induced bronchoconstriction in vivo of sensitised guinea pig (allergic asthma of guinea pig); details: for tolerance of additional/successive ovalbumin injections: pretreated animals, two additional (three successive) injections of 40 μg ovalbumin
Source text: These pharmacological properties were largely verified by measuring methods which were, basically, known from the literature. They were, however, applied in a modified form. […] 63, 1 (1979); M. W. Schneider and J. M. Drazen, Amer. Rev. Resp. Dis. 121, 835 (1980); S. S. Yen and W. Kreutner, Agents Actions 10, 174 (1980); S. S. Yen, Prostaglandins 22, 183 (1981); Adcock, J. J.; Garland, L. G.; Brit. J. Pharmacol. 69, 167 (1980); W. Diamantis, J. L. Melton; D. Sofia et al., Europ. J. Pharmacol. 56, 407 (1979); P. Anderson, Brit. J. Pharmacol. 77, 301 (1982)].
It was, remarkably, observed that all control animals died of apnoea after one single intraperitoneal application of ovalbumin (40 μg/kg body weight), following protracted and extremely severe asthmatic reaction (anaphylactic shock?).
Action on allergen-induced bronchoconstriction in vivo of sensitised guinea pig ("allergic asthma of guinea pig"):
This test was applied to male guinea pigs, 30 to 35 days from sensitisation, using 330 mg of aluminium hydroxide and 33 μg of ovalbuminper one kilogram of body weight (fresh preparation in physiological sodium chloride solution).
(Method was modified according to P. Anderson, Brit. J. Pharmacol. 77, 301 (1982).) The animals were anaesthetised by intraperitoneal application of 1.3 g/kg body weight of urethane, while 2 mg/kg body weight of Pavulon® were intravenously injected for muscular relaxation. Intravenous injection of 40 μg of ovalbumin triggered off the allergen-induced bronchoconstriction which developed to the full scale of anaphylactic shock in all control animals, within few seconds. The animals, tracheostomised and with venous catheters, were artificially ventilated at rhythmic negative pressure in a tank respirator (f=16 min^-1; inspiration:expiration=1:1). Gas flow(V), breathing volume (VT), and ECG were checked in the course of pneumotachography. The animals had been pretreated by two intraperitoneal injections of finely crushed 5-methyl-2-hydroxylaurophenone-oxime, suspended in agar-agar. […]

[2] = tested on: trachea isolated from guinea pig; assay: carbachol-induced contraction of trachea isolated from guinea pig; details: spasm by 3.9 μM carbachol; clearly detectable even at 50 μM of active substance
Description: Action of 5-methyl-2-hydroxy-laurophenone-oxime on carbachol-induced contraction of trachea isolated from guinea pig:
The compound was checked for anti-asthmatic activity by means of measuring methods well established and known from the literature (cf p. 5) but modified for the purpose of this invention, using a tracheal spiral isolated from guinea pig. Measurements were conducted in thermostat-controlled organ bath in isotonic condition, using a contraction gauge with lever-type sensor, measuring coil, and measuring amplifier (inductive measurement by means of high-frequency oscillating circuit). Air was used for gassing. The suspension solution was of the following composition: 39.46 g of sodium chloride, 2.2 g of potassium chloride, 6.07 g of tris, 1.0 g of calcium chloride, 9.9 g of glucose, 1.0 ml of saturated magnesium chloride solution, 43 ml 1N hydrochloric acid per 5 l, pH 7.4.
Spasm was induced by 3.9 μM of carbachol.

CCCCCCCCCCCC(=NO)c1cc(C)ccc1O [5-methyl-2-hydroxy-laurophenone-oxime]
inhibition at 10 µM [1]: 70%
solubility in water (solubility in water): limited solubility in water
inhibition of ovalbumin-induced asthma reaction (sensitised guinea pig; 2 x 10 mg/kg i.p., 90 and 60 minutes prior, 40 μg ovalbumin i.v., all probands): Complete inhibition
tolerance of additional/successive ovalbumin injections (sensitised guinea pig): tolerated without reaction
tolerance of additional/successive ovalbumin injections (sensitised guinea pig; listed as 5-methyl-2-hydroxyl-laurophenone-oxime): tolerated without any sign of bronchoconstriction
dilatation after carbachol-induced spasm [2]: strong dilatation

Source: patent US4816487A, “1-(2-hydroxyaryl)-alkane-1-on-oximes-procedure of preparation and use in pharmaceuticals” (Humboldt-Universitaet zu Berlin, priority 1985, dated 1989)
